Source: patent publication US20260167632A1, “NICOTINAMIDE DERIVATIVES FOR USE IN TREATING DISORDERS ASSOCIATED WITH KCNK13 ACTIVITY” (Cerevance, Inc., priority 2022, published 2026)

Target: T1, human KCNK13 (Homo sapiens, UniProt Q9HB14)
T1 construct: expressed in transfected cells
T1 sequence (Q9HB14 1-408): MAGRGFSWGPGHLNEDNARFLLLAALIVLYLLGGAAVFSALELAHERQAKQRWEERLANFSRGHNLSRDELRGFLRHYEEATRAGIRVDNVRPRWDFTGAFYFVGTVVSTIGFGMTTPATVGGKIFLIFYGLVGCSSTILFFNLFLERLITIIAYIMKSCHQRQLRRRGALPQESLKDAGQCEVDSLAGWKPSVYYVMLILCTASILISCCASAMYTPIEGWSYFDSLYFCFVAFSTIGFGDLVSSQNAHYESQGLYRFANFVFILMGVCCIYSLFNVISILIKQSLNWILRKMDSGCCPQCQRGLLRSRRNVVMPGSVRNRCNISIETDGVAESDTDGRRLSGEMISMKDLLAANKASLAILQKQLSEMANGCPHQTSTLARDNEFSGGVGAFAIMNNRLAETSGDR
Test: KCNK13 antagonist activity, thallium flux FLIPR assay in HEK 293 cells stably expressing human KCNK13
Type: cell-based
Conditions: HEK 293 cells stably expressing human KCNK13, Tl+ sensitive dye, compound 15 min before thallium sulfate, ten point curves; read-out: hKCNK13 IC50
Description: 4. Biological Efficacy of Compounds of the Invention
KCNK13 antagonist activity was determined by measuring changes in intracellular Thallium (Tl^+) concentrations using a Tl^+ sensitive fluorescent dye. The changes in fluorescent signal were monitored by Fluorescent Imaging Plate Reader (FLIPR™) technology available from Molecular Devices, LLC, US. KCNK13 mediated increases in intracellular Tl^+ concentration were readily detected by addition of a thallium sulfate Stimulus. 24 hours prior to the assay, human embryonic kidney 293 cells (HEK 293 cells) stably expressing human KCNK13 were seeded in cell culture medium in PDL coated black, clear-bottom 384-well plates (commercially available from Corning Inc., 356663) and grown overnight at 37° C., […]. On the day of the assay, cell culture media was removed and cells were loaded with potassium dye (commercially sold by Molecular Devices, LLC, US, R8222) for 1 hour at room temperature in the dark. Test compounds (at 10 point half log concentration response curves from 100 µM) were added to cells for 15 minutes prior to the addition of thallium sulfate to all wells. The IC50 values were determined from ten point concentration response curves. Curves were generated using the average of two wells for each data point.

`COc1ncc(F)cc1C(=O)N(C)C(C)c1ccc(F)cc1F` (single isomer, unassigned) [Example 69, N-(1-(2,4-difluorophenyl)ethyl)-5-fluoro-2-methoxy-N-methylnicotinamide] was tested. Which IC50 did it give?
The IC50 was ≤ 200 nM.

For `CC(c1ccccc1F)N(C)C(=O)c1cc(F)cnc1OC(F)F` (single isomer, unassigned) [Example 70, 2-(difluoromethoxy)-5-fluoro-N-(1-(2-fluorophenyl)ethyl)-N-methylnicotinamide], which IC50 is on record?
Its IC50 is ≤ 200 nM.

How did the IC50 turn out when `CC(c1ccccc1F)N(C)C(=O)c1cc(F)cnc1OC(F)F` (single isomer, unassigned) [Example 71, 2-(difluoromethoxy)-5-fluoro-N-(1-(2-fluorophenyl)ethyl)-N-methylnicotinamide] was run?
Its IC50 is ≤ 100 nM.

With `CC(c1cccc(F)c1)N(C)C(=O)c1cc(Cl)cnc1OC(F)F` (single isomer, unassigned) [Example 86, 5-chloro-2-(difluoromethoxy)-N-(1-(3-fluorophenyl)ethyl)-N-methylnicotinamide] as the molecule, how does the IC50 read?
Its IC50 is ≤ 100 nM.

With `CC(c1cccc(F)c1)N(C)C(=O)c1cc(Cl)cnc1OC(F)F` (single isomer, unassigned) [Example 87, 5-chloro-2-(difluoromethoxy)-N-(1-(3-fluorophenyl)ethyl)-N-methylnicotinamide] as the molecule, how does the IC50 read?
The IC50 was ≤ 200 nM.

For `CC(c1cccc(F)c1)N(C)C(=O)c1cc(F)cnc1OC(F)F` (single isomer, unassigned) [Example 88, 2-(difluoromethoxy)-5-fluoro-N-(1-(3-fluorophenyl)ethyl)-N-methylnicotinamide], which IC50 is on record?
Its IC50 is ≤ 100 nM.

How did the IC50 turn out when `CC(c1cccc(F)c1)N(C)C(=O)c1cc(F)cnc1OC(F)F` (single isomer, unassigned) [Example 89, 2-(difluoromethoxy)-5-fluoro-N-(1-(3-fluorophenyl)ethyl)-N-methylnicotinamide] was run?
The IC50 was ≤ 200 nM.

How did the IC50 turn out when `COc1ncc(Cl)cc1C(=O)N(C)Cc1ccccc1` [Example 1, N-benzyl-5-chloro-2-methoxy-N-methylnicotinamide] was run?
Its IC50 is ≤ 100 nM.

With `COc1ncc(Cl)cc1C(=O)N(C)C1CCc2ccc(C#N)cc21` (stereo not shown) [Example 2, 5-chloro-N-(6-cyano-2,3-dihydro-1H-inden-1-yl)-2-methoxy-N-methylnicotinamide] as the molecule, how does the IC50 read?
The IC50 was ≤ 1000 nM.

How did the IC50 turn out when `COc1ncc(Cl)cc1C(=O)N(C)C1CCc2cccc(C#N)c21` (stereo not shown) [Example 3, 5-chloro-N-(7-cyano-2,3-dihydro-1H-inden-1-yl)-2-methoxy-N-methylnicotinamide] was run?
The IC50 was ≤ 500 nM.

Which IC50 does the source give for `COc1ncc(F)cc1C(=O)N1CCCCC1c1cccc(F)c1` (stereo not shown) [Example 4, (5-fluoro-2-methoxypyridin-3-yl)(2-(3-fluorophenyl)piperidin-1-yl)methanone] here?
Its IC50 is ≤ 1000 nM.

For `COc1nc(C)ccc1C(=O)N(C)Cc1ccc(F)cc1F` [Example 11, N-(2,4-difluorobenzyl)-2-methoxy-N,6-dimethylnicotinamide], which IC50 is on record?
The IC50 was ≤ 1000 nM.

With `COc1ncccc1C(=O)N(C)Cc1cccc(F)c1` [Example 32, N-(3-fluorobenzyl)-2-methoxy-N-methylnicotinamide] as the molecule, how does the IC50 read?
The IC50 was ≤ 1000 nM.

For `COc1ncccc1C(=O)N(C)Cc1ccccc1F` [Example 33, N-(2-fluorobenzyl)-2-methoxy-N-methylnicotinamide], which IC50 is on record?
The IC50 was ≤ 500 nM.

With `COc1ncc(F)cc1C(=O)N(C)C1(c2cccc(F)c2)CC1` [Example 34, 5-fluoro-N-(1-(3-fluorophenyl)cyclopropyl)-2-methoxy-N-methylnicotinamide] as the molecule, how does the IC50 read?
The IC50 was ≤ 500 nM.

For `COc1ncc(F)cc1C(=O)N(C)C1COc2ccc(F)cc21` (stereo not shown) [Example 35, 5-fluoro-N-(5-fluoro-2,3-dihydrobenzofuran-3-yl)-2-methoxy-N-methylnicotinamide], which IC50 is on record?
The IC50 was ≤ 500 nM.

With `COc1ncc(F)cc1C(=O)N(C)Cc1ccccc1C#N` [Example 36, N-(2-cyanobenzyl)-5-fluoro-2-methoxy-N-methylnicotinamide] as the molecule, how does the IC50 read?
The IC50 was ≤ 500 nM.

For `COc1ncc(F)cc1C(=O)N(C)Cc1ccccc1F` [Example 37, 5-fluoro-N-(2-fluorobenzyl)-2-methoxy-N-methylnicotinamide], which IC50 is on record?
The IC50 was ≤ 200 nM.

How did the IC50 turn out when `COc1ncc(F)cc1C(=O)N(C)Cc1cccc(F)c1F` [Example 38, N-(2,3-difluorobenzyl)-5-fluoro-2-methoxy-N-methylnicotinamide] was run?
Its IC50 is ≤ 500 nM.

For `COc1ncc(Cl)cc1C(=O)N(C)Cc1cccc(F)c1F` [Example 40, 5-chloro-N-(2,3-difluorobenzyl)-2-methoxy-N-methylnicotinamide], which IC50 is on record?
Its IC50 is ≤ 200 nM.

Which IC50 does the source give for `COc1ncc(Cl)cc1C(=O)N(C)Cc1cc(F)cc(F)c1` [Example 41, 5-chloro-N-(3,5-difluorobenzyl)-2-methoxy-N-methylnicotinamide] here?
The IC50 was ≤ 200 nM.

With `COc1ncc(F)cc1C(=O)N(C)C1COc2cc(F)ccc21` (stereo not shown) [Example 42, 5-fluoro-N-(6-fluoro-2,3-dihydrobenzofuran-3-yl)-2-methoxy-N-methylnicotinamide] as the molecule, how does the IC50 read?
Its IC50 is ≤ 1000 nM.

`COc1ncc(Cl)cc1C(=O)N(C)C1CCOc2cc(F)ccc21` (stereo not shown) [Example 43, 5-chloro-N-(7-fluorochroman-4-yl)-2-methoxy-N-methylnicotinamide] was tested. Which IC50 did it give?
Its IC50 is ≤ 1000 nM.

How did the IC50 turn out when `COc1ncc(Cl)cc1C(=O)N(C)Cc1cc(F)cc(Cl)c1` [Example 44, 5-chloro-N-(3-chloro-5-fluorobenzyl)-2-methoxy-N-methylnicotinamide] was run?
The IC50 was ≤ 200 nM.

For `CCN(Cc1ccccc1)C(=O)c1cc(Cl)cnc1OC` [Example 47, N-benzyl-5-chloro-N-ethyl-2-methoxynicotinamide], which IC50 is on record?
Its IC50 is ≤ 1000 nM.

`CCN(Cc1ccccc1F)C(=O)c1cc(Cl)cnc1OC` [Example 48, 5-chloro-N-ethyl-N-(2-fluorobenzyl)-2-methoxynicotinamide] was tested. Which IC50 did it give?
Its IC50 is ≤ 500 nM.

For `CCN(Cc1cccc(F)c1)C(=O)c1cc(Cl)cnc1OC` [Example 49, 5-chloro-N-ethyl-N-(3-fluorobenzyl)-2-methoxynicotinamide], which IC50 is on record?
Its IC50 is ≤ 1000 nM.

With `COc1ncc(F)cc1C(=O)N(C)Cc1cccc(F)c1` [Example 50, 5-fluoro-N-(3-fluorobenzyl)-2-methoxy-N-methylnicotinamide] as the molecule, how does the IC50 read?
The IC50 was ≤ 200 nM.

How did the IC50 turn out when `COc1ncc(C)cc1S(=O)(=O)N1CCc2ccccc2C1` [Example 51, 2-((2-methoxy-5-methylpyridin-3-yl)sulfonyl)-1,2,3,4-tetrahydroisoquinoline] was run?
Its IC50 is ≤ 200 nM.

For `COc1ncc(Cl)cc1S(=O)(=O)N1CCc2ccccc2C1` [Example 52, 2-((5-chloro-2-methoxypyridin-3-yl)sulfonyl)-1,2,3,4-tetrahydroisoquinoline], which IC50 is on record?
Its IC50 is ≤ 200 nM.

For `COc1ncc(C)cc1S(=O)(=O)N1CCOc2ccc(F)cc2C1` [Example 53, 7-fluoro-4-((2-methoxy-5-methylpyridin-3-yl)sulfonyl)-2,3,4,5-tetrahydrobenzo[f][1,4]oxazepine], which IC50 is on record?
Its IC50 is ≤ 500 nM.

Which IC50 does the source give for `COc1ncc(Cl)cc1S(=O)(=O)N1CCOc2ccc(F)cc2C1` [Example 54, 4-((5-chloro-2-methoxypyridin-3-yl)sulfonyl)-7-fluoro-2,3,4,5-tetrahydrobenzo[f][1,4]oxazepine] here?
Its IC50 is ≤ 500 nM.

`COc1ncccc1S(=O)(=O)N1CCOc2ccc(F)cc2C1` [Example 55, 7-fluoro-4-((2-methoxypyridin-3-yl)sulfonyl)-2,3,4,5-tetrahydrobenzo[f][1,4]oxazepine] was tested. Which IC50 did it give?
Its IC50 is ≤ 500 nM.

`COC(=O)c1ccc(F)cc1CN(C)C(=O)c1cc(F)cnc1OC` [Example 56, methyl 4-fluoro-2-((5-fluoro-2-methoxy-N-methylnicotinamido)methyl)benzoate] was tested. Which IC50 did it give?
The IC50 was ≤ 500 nM.

For `COc1ncc(Cl)cc1C(=O)N(C)Cc1ccc(F)cc1C(F)(F)F` [Example 57, 5-chloro-N-(4-fluoro-2-(trifluoromethyl)benzyl)-2-methoxy-N-methylnicotinamide], which IC50 is on record?
Its IC50 is ≤ 1000 nM.

How did the IC50 turn out when `COc1ncc(Cl)cc1C(=O)N(C)Cc1ccc(F)cc1C#N` [Example 58, 5-chloro-N-(2-cyano-4-fluorobenzyl)-2-methoxy-N-methylnicotinamide] was run?
The IC50 was ≤ 200 nM.

With `COc1ncc(F)cc1C(=O)N(C)Cc1c(F)cc(F)cc1C#N` [Example 61, N-(2-cyano-4,6-difluorobenzyl)-5-fluoro-2-methoxy-N-methylnicotinamide] as the molecule, how does the IC50 read?
Its IC50 is ≤ 1000 nM.

For `COc1ncc(C)cc1C(=O)N(C)Cc1ccc(F)cc1F` [Example 72, N-(2,4-difluorobenzyl)-2-methoxy-N,5-dimethylnicotinamide], which IC50 is on record?
The IC50 was ≤ 200 nM.

Which IC50 does the source give for `COc1nccc(C)c1C(=O)N(C)Cc1ccc(F)cc1F` [Example 73, N-(2,4-difluorobenzyl)-2-methoxy-N,4-dimethylnicotinamide] here?
Its IC50 is ≤ 500 nM.

How did the IC50 turn out when `CN(C(=O)c1cc(F)cnc1OC(F)F)C1COc2cc(F)ccc21` (stereo not shown) [Example 74, 2-(difluoromethoxy)-5-fluoro-N-(6-fluoro-2,3-dihydrobenzofuran-3-yl)-N-methylnicotinamide] was run?
Its IC50 is ≤ 500 nM.
